Reference: the supplement of paper PMC11208160

Assay: recombinant UMI read abundance after kanamycin selection (control-corrected) (log10(CPM+1)); higher = more efficient recombination; extreme values may be limits of the assay; sequences stand for … in AGTGCAGAGAAAATCGGCCAGTTTTCTCTGCCTGCAGTCCGCATGCCGTGGGACCCCTTGGGTTCTAACCTGTTGCCTAGATTTATGCAGCGGACTGCCTTTCTCCCAAAGTGATAAACCGG…AGGTTGGTTTCACT; site = the 11-nt donor
Method in brief: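 Values, expressed as log10(CPM+1), derive from recombinant UMI counts converted to CPM, averaged across replicates and scaled by control-derived factors. Plating was with IPTG (0.07 mM) plus kanamycin or unselected, two replicates each. The screen pooled donor and donor-binding-loop pairs for the IS621 bridge recombinase in Escherichia coli.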
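Also: IS621 bridge recombinase in Escherichia coli cells against a fixed T5 target plasmid.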

“AGCCACCCATGGACCGGTTTTCCCGGTAATCCGTATTTGTT (site AGCCACCCTAA)” and “AGCCACCCATGGACCGGTTTTCCCGGTAATCCGTATTTGTT (site CGCCACCCTAA)” are within 0.2 log units of each other in “recombinant UMI read abundance (log10)” value: 0.0153 for the first, 0.026 for the second.

“AGCCACCCATGGACCGGTTTTCCCGGTAATCCGTATTTGTT (site GGCCACCCTAA)” and “AGCCACCCATGGACCGGTTTTCCCGGTAATCCGTATTTGTT (site TGCCACCCTAA)” are the same in “recombinant UMI read abundance (log10)” value: 0 for the first, 0 for the second.

First: AGCCAGACATGGACCGGTTTTCCCGGTAATCCGTATTTGCA (site AGCCAGACTTG)
Second: AGCCAGACATGGACCGGTTTTCCCGGTAATCCGTATTTGCA (site AGGAAGACTTG)
The “recombinant UMI read abundance (log10)” value of the first is higher: 2.18 for the first, 0 for the second.

First: AGCCCAGCATGGACCGGTTTTCCCGGTAATCCGTATTTGTT (site AGCCAAGCTAA)
Second: AGCCCAGCATGGACCGGTTTTCCCGGTAATCCGTATTTGTT (site AGCCCAGCTAA)
The “recombinant UMI read abundance (log10)” value of the first is lower: 0.0134 for the first, 0.602 for the second.

“AGCCCAGCATGGACCGGTTTTCCCGGTAATCCGTATTTGTT (site AGCCGAGCTAA)” and “AGCCCAGCATGGACCGGTTTTCCCGGTAATCCGTATTTGTT (site AGCCTAGCTAA)” are within 0.2 log units of each other in “recombinant UMI read abundance (log10)” value: 0.0227 for the first, 0.0205 for the second.

First: AGCCCCGCATGGACCGGTTTTCCCGGTAATCCGTATTTGTT (site AGCCCCGCTAA)
Second: AGCCCGCCATGGACCGGTTTTCCCGGTAATCCGTATTTGGG (site AGCCCGCCTCC)
The “recombinant UMI read abundance (log10)” value of the first is higher: 1.12 for the first, 0.00589 for the second.

Compared with “AGCCGGCCATGGACCGGTTTTCCCGGTAATCCGTATTTGAT (site AGCCGGCCTAT)”, “AGCCGTACATGGACCGGTTTTCCCGGTAATCCGTATTTGCT (site AGCCGTACTAG)” is higher in “recombinant UMI read abundance (log10)” value: 0.00427 for the first, 1.74 for the second.

Compared with “AGCCGTACATGGACCGGTTTTCCCGGTAATCCGTATTTGCT (site CGCCGTACTAG)”, “AGCCGTACATGGACCGGTTTTCCCGGTAATCCGTATTTGCT (site GGCCGTACTAG)” is lower in “recombinant UMI read abundance (log10)” value: 0.697 for the first, 0 for the second.

First: AGCCGTACATGGACCGGTTTTCCCGGTAATCCGTATTTGCT (site TGCCGTACTAG)
Second: AGCCTAACATGGACCGGTTTTCCCGGTAATCCGTATTTGGG (site AGCCTAACTCC)
The “recombinant UMI read abundance (log10)” value of the first is higher: 1.18 for the first, 0.0227 for the second.

“AGCCTAACATGGACCGGTTTTCCCGGTAATCCGTATTTGTT (site AGCCTAACTAA)” and “AGCCTAACATGGACCGGTTTTCCCGGTAATCCGTATTTGTT (site AGCCTACCTAA)” are within 0.2 log units of each other in “recombinant UMI read abundance (log10)” value: 0.00538 for the first, 0.024 for the second.

“AGCCTAACATGGACCGGTTTTCCCGGTAATCCGTATTTGTT (site AGCCTAGCTAA)” and “AGCCTAACATGGACCGGTTTTCCCGGTAATCCGTATTTGTT (site AGCCTATCTAA)” are within 0.2 log units of each other in “recombinant UMI read abundance (log10)” value: 0.0126 for the first, 0.00871 for the second.

“AGCCTAGCATGGACCGGTTTTCCCGGTAATCCGTATTTGTT (site AACCTAGCTAA)” and “AGCCTAGCATGGACCGGTTTTCCCGGTAATCCGTATTTGTT (site ACCCTAGCTAA)” are within 0.2 log units of each other in “recombinant UMI read abundance (log10)” value: 0.00661 for the first, 0.0311 for the second.

“AGCCTAGCATGGACCGGTTTTCCCGGTAATCCGTATTTGTT (site AGACTAGCTAA)” and “AGCCTAGCATGGACCGGTTTTCCCGGTAATCCGTATTTGTT (site AGCATAGCTAA)” are within 0.2 log units of each other in “recombinant UMI read abundance (log10)” value: 0.00397 for the first, 0.00842 for the second.

“AGCCTAGCATGGACCGGTTTTCCCGGTAATCCGTATTTGTT (site AGCCAAGCTAA)” and “AGCCTAGCATGGACCGGTTTTCCCGGTAATCCGTATTTGTT (site AGCCCAGCTAA)” are within 0.2 log units of each other in “recombinant UMI read abundance (log10)” value: 0.0196 for the first, 0.00418 for the second.

“AGCCTAGCATGGACCGGTTTTCCCGGTAATCCGTATTTGTT (site AGCCGAGCTAA)” and “AGCCTAGCATGGACCGGTTTTCCCGGTAATCCGTATTTGTT (site AGCCTAACTAA)” are within 0.2 log units of each other in “recombinant UMI read abundance (log10)” value: 0.0175 for the first, 0.0384 for the second.

“AGCCTAGCATGGACCGGTTTTCCCGGTAATCCGTATTTGTT (site AGCCTACCTAA)” and “AGCCTAGCATGGACCGGTTTTCCCGGTAATCCGTATTTGTT (site AGCCTAGCTAA)” are within 0.2 log units of each other in “recombinant UMI read abundance (log10)” value: 0.0078 for the first, 0.0154 for the second.

“AGCCTAGCATGGACCGGTTTTCCCGGTAATCCGTATTTGTT (site AGCCTAGCTAC)” and “AGCCTAGCATGGACCGGTTTTCCCGGTAATCCGTATTTGTT (site AGCCTAGCTAG)” are the same in “recombinant UMI read abundance (log10)” value: 0 for the first, 0 for the second.

“AGCCTAGCATGGACCGGTTTTCCCGGTAATCCGTATTTGTT (site AGCCTAGCTAT)” and “AGCCTAGCATGGACCGGTTTTCCCGGTAATCCGTATTTGTT (site AGCCTAGCTCA)” are within 0.2 log units of each other in “recombinant UMI read abundance (log10)” value: 0.0124 for the first, 0.0329 for the second.

“AGCCTAGCATGGACCGGTTTTCCCGGTAATCCGTATTTGTT (site AGCCTAGCTGA)” and “AGCCTAGCATGGACCGGTTTTCCCGGTAATCCGTATTTGTT (site AGCCTAGCTTA)” are within 0.2 log units of each other in “recombinant UMI read abundance (log10)” value: 0 for the first, 0.00455 for the second.

“AGCCTAGCATGGACCGGTTTTCCCGGTAATCCGTATTTGTT (site AGCCTATCTAA)” and “AGCCTAGCATGGACCGGTTTTCCCGGTAATCCGTATTTGTT (site AGCCTCGCTAA)” are within 0.2 log units of each other in “recombinant UMI read abundance (log10)” value: 0.00805 for the first, 0.0288 for the second.

“AGCCTAGCATGGACCGGTTTTCCCGGTAATCCGTATTTGTT (site AGCCTGGCTAA)” and “AGCCTAGCATGGACCGGTTTTCCCGGTAATCCGTATTTGTT (site AGCCTTGCTAA)” are within 0.2 log units of each other in “recombinant UMI read abundance (log10)” value: 0.0296 for the first, 0.0186 for the second.

“AGCCTAGCATGGACCGGTTTTCCCGGTAATCCGTATTTGTT (site AGCGTAGCTAA)” and “AGCCTAGCATGGACCGGTTTTCCCGGTAATCCGTATTTGTT (site AGCTTAGCTAA)” are within 0.2 log units of each other in “recombinant UMI read abundance (log10)” value: 0.00795 for the first, 0.0228 for the second.

“AGCCTAGCATGGACCGGTTTTCCCGGTAATCCGTATTTGTT (site AGGCTAGCTAA)” and “AGCCTAGCATGGACCGGTTTTCCCGGTAATCCGTATTTGTT (site AGTCTAGCTAA)” are within 0.2 log units of each other in “recombinant UMI read abundance (log10)” value: 0.00253 for the first, 0.0113 for the second.

“AGCCTAGCATGGACCGGTTTTCCCGGTAATCCGTATTTGTT (site ATCCTAGCTAA)” and “AGCCTAGCATGGACCGGTTTTCCCGGTAATCCGTATTTGTT (site CGCCTAGCTAA)” are within 0.2 log units of each other in “recombinant UMI read abundance (log10)” value: 0.0142 for the first, 0.00222 for the second.

“AGCCTAGCATGGACCGGTTTTCCCGGTAATCCGTATTTGTT (site GGCCTAGCTAA)” and “AGCCTAGCATGGACCGGTTTTCCCGGTAATCCGTATTTGTT (site TGCCTAGCTAA)” are within 0.2 log units of each other in “recombinant UMI read abundance (log10)” value: 0.0159 for the first, 0.00782 for the second.

“AGCCTGGCATGGACCGGTTTTCCCGGTAATCCGTATTTGAC (site AGCCTGGCTGT)” and “AGCCTTTCATGGACCGGTTTTCCCGGTAATCCGTATTTGAA (site AGCCTTTCTAT)” are the same in “recombinant UMI read abundance (log10)” value: 0 for the first, 0 for the second.

“AGCCTTTCATGGACCGGTTTTCCCGGTAATCCGTATTTGAA (site AGCCTTTCTCT)” and “AGCCTTTCATGGACCGGTTTTCCCGGTAATCCGTATTTGAA (site AGCCTTTCTGT)” are within 0.2 log units of each other in “recombinant UMI read abundance (log10)” value: 0.00501 for the first, 0 for the second.

“AGCCTTTCATGGACCGGTTTTCCCGGTAATCCGTATTTGAA (site AGCCTTTCTTT)” and “AGCCTTTCATGGACCGGTTTTCCCGGTAATCCGTATTTGAC (site AACCTTTCTGT)” are the same in “recombinant UMI read abundance (log10)” value: 0 for the first, 0 for the second.

“AGCCTTTCATGGACCGGTTTTCCCGGTAATCCGTATTTGAC (site ACCCTTTCTGT)” and “AGCCTTTCATGGACCGGTTTTCCCGGTAATCCGTATTTGAC (site AGACTTTCTGT)” are the same in “recombinant UMI read abundance (log10)” value: 0 for the first, 0 for the second.

“AGCCTTTCATGGACCGGTTTTCCCGGTAATCCGTATTTGAC (site AGCATTTCTGT)” and “AGCCTTTCATGGACCGGTTTTCCCGGTAATCCGTATTTGAC (site AGCCATTCTGT)” are within 0.2 log units of each other in “recombinant UMI read abundance (log10)” value: 0.00674 for the first, 0 for the second.

“AGCCTTTCATGGACCGGTTTTCCCGGTAATCCGTATTTGAC (site AGCCCTTCTGT)” and “AGCCTTTCATGGACCGGTTTTCCCGGTAATCCGTATTTGAC (site AGCCGTTCTGT)” are the same in “recombinant UMI read abundance (log10)” value: 0 for the first, 0 for the second.

Compared with “AGCCTTTCATGGACCGGTTTTCCCGGTAATCCGTATTTGAC (site AGCCTATCTGT)”, “AGCCTTTCATGGACCGGTTTTCCCGGTAATCCGTATTTGAC (site AGCCTCTCTGT)” is lower in “recombinant UMI read abundance (log10)” value: 1.73 for the first, 0 for the second.

“AGCCTTTCATGGACCGGTTTTCCCGGTAATCCGTATTTGAC (site AGCCTGTCTGT)” and “AGCCTTTCATGGACCGGTTTTCCCGGTAATCCGTATTTGAC (site AGCCTTACTGT)” are the same in “recombinant UMI read abundance (log10)” value: 0 for the first, 0 for the second.

“AGCCTTTCATGGACCGGTTTTCCCGGTAATCCGTATTTGAC (site AGCCTTCCTGT)” and “AGCCTTTCATGGACCGGTTTTCCCGGTAATCCGTATTTGAC (site AGCCTTGCTGT)” are the same in “recombinant UMI read abundance (log10)” value: 0 for the first, 0 for the second.

“AGCCTTTCATGGACCGGTTTTCCCGGTAATCCGTATTTGAC (site AGCCTTTCTAT)” and “AGCCTTTCATGGACCGGTTTTCCCGGTAATCCGTATTTGAC (site AGCCTTTCTCT)” are within 0.2 log units of each other in “recombinant UMI read abundance (log10)” value: 0 for the first, 0.00414 for the second.

“AGCCTTTCATGGACCGGTTTTCCCGGTAATCCGTATTTGAC (site AGCCTTTCTGA)” and “AGCCTTTCATGGACCGGTTTTCCCGGTAATCCGTATTTGAC (site AGCCTTTCTGC)” are the same in “recombinant UMI read abundance (log10)” value: 0 for the first, 0 for the second.

“AGCCTTTCATGGACCGGTTTTCCCGGTAATCCGTATTTGAC (site AGCCTTTCTGG)” and “AGCCTTTCATGGACCGGTTTTCCCGGTAATCCGTATTTGAC (site AGCCTTTCTGT)” are the same in “recombinant UMI read abundance (log10)” value: 0 for the first, 0 for the second.

In the case of “AGCCTTTCATGGACCGGTTTTCCCGGTAATCCGTATTTGAC (site AGCCTTTCTTT)”, the “recombinant UMI read abundance (log10)” value is reported as 0.
